One test deals with Rhipicephalus sanguineus. Briefly: In vitro contact test with adult hard ticks (Rhipicephalus sanguineus). Particulars: read-out: acaricidal activity; for pest or weed control at 0.2 µg/cm2, 0.2 µg/cm2: dose 0.2 μg/cm^2, 48 h; for pest or weed control at 1 µg/cm2, 1 µg/cm2: dose 1 μg/cm^2, 48 h. The procedure, abridged:
(§1)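 Adult R. sanguineus, I. ricinus, D. variabilis or A. americanum nymphs exposed in glass vials coated with compound from acetone (900 ppm gives 5 μg/cm^2). Held 48 h at room temperature (R. sanguineus) or 21° C., 85% rel. hum.; then heated at 45-50° C. ≤5 min, motionless or uncoordinated ticks scored dead/moribund.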

Another test has as its system Spodoptera litura. As to the kind of experiment: Insecticidal testing against common cutworm. It is filed as in vivo. Particulars: foliar, 144 h, concentration 100 ppm, cabbage leaf dip, second-stage larvae, after 6 days, read-out: pesticidal rate. An excerpt:
Insecticidal Testing Against Common Cutworm (Spodoptera litura)

The test system of another test is Plutella xylostella. Briefly: Insecticidal testing against diamondback moth. It is filed as in vivo. Conditions: foliar, 144 h, concentration 100 ppm, cabbage leaf dip, third-stage larvae, after 6 days, read-out: pesticidal rate. The source says:
Insecticidal Testing Against Diamondback Moth (Plutella xylostella)

In test [1] the test system is Ctenocephalides felis. Briefly: In vitro contact test with fleas. Conditions: read-out: insecticidal activity; for pest or weed control at 0.04 µg/cm2, 0.04 µg/cm2: dose 0.04 μg/cm^2, dead or moribund fleas after 48 h; for pest or weed control at 0.2 µg/cm2, 0.2 µg/cm2: dose 0.2 μg/cm^2, dead or moribund fleas after 48 h; for pest or weed control at 1 µg/cm2, 1 µg/cm2: dose 1 μg/cm^2, dead or moribund fleas after 48 h. The procedure, abridged: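 Adult male and female cat fleas (5-10 per tube) placed in glass tubes coated with compound from acetone solution (900 ppm gives 5 μg/cm^2), kept at room temperature and ambient humidity. After 48 h, motionless or uncoordinated fleas scored dead or moribund; activity expressed as % dead or moribund.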

For a further test, the system named is Amblyomma americanum. Briefly: In vitro contact test with hard ticks (Amblyomma americanum nymphs). Particulars: read-out: acaricidal activity; for pest or weed control at 1 µg/cm2, 1 µg/cm2: dose 1 μg/cm^2, 48 h; for pest or weed control at 0.2 µg/cm2, 0.2 µg/cm2: dose 0.2 μg/cm^2, 48 h. The procedure, abridged:
as §1

Another test has as its system Laodelphax striatellus. As to the kind of experiment: Insecticidal testing against small brown planthopper. The class given is in vivo. Conditions: 144 h, concentration 100 ppm, sprayed rice seedlings, after 6 days, read-out: pesticidal rate. The procedure, abridged:
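Acetone solution of compound at a set concentration sprayed onto rice seedlings, air-dried, then exposed to 10 planthoppers (one group). Held at 25° C; survival rate recorded after 6 days.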

For test [2], the system named is Rhipicephalus (Boophilus) microplus. As to the kind of experiment: In vitro injection test with Rhipicephalus (Boophilus) microplus (BOOPMI Inj). Conditions: 168 h, laid fertile eggs after 7 days, read-out: acaricidal activity; for pest or weed control at 32 ng: dose 0.032 μg/animal injected; for pest or weed control at 0.00016 mg: dose 0.16 μg/animal injected; for pest or weed control at 0.0008 mg: dose 0.8 μg/animal injected. The procedure, abridged: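 Test substance in DMSO; 1 μl injected into abdomen of each of 5 engorged adult female ticks, then held at 28° C., 85% rel. hum. Activity scored after 7 days from laying of fertile eggs: 100% = no eggs or all infertile, 0% = all eggs fertile.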

Test [3] deals with Ctenocephalides felis. As to the kind of experiment: Systemic treatment in-vivo test with cat flea on rats. Particulars: Ctenocephalides felis, ip, intraperitoneal injection. The procedure, abridged:
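Rats dosed intraperitoneally per body weight in glycerol formal (up to 25% NMP for poorly soluble compounds). 30 D. variabilis nymphs released on treatment day and weekly, 30 C. felis fleas 24 h later; live attached engorged ticks counted at 48 h (±4 h), live fleas at 24 h, efficacy versus placebo group.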

The mark [4] stands for this setting: SD 2, read-out: Geometric mean percent reduction in live flea (Ctenocephalides felis) counts compared to untreated control rats.
The mark [5] stands for this setting: SD 9, read-out: Geometric mean percent reduction in live flea (Ctenocephalides felis) counts compared to untreated control rats.
[6] abbreviates: SD 16, read-out: Geometric mean percent reduction in live flea (Ctenocephalides felis) counts compared to untreated control rats.
Setting [7] is: SD 23, read-out: Geometric mean percent reduction in live flea (Ctenocephalides felis) counts compared to untreated control rats.
Setting [8] is: SD 30, read-out: Geometric mean percent reduction in live flea (Ctenocephalides felis) counts compared to untreated control rats.

Read-outs that look alike come from different tables or passages of the source.

`CN(C(=O)c1ccc(F)c(F)c1)c1cccc(C(=O)Nc2c(I)cc(C(F)(C(F)(F)F)C(F)(F)F)cc2C(F)(F)F)c1F` [Compound 51]: the figures for the pest or weed control at 0.2 µg/cm2, 0.2 µg/cm2 in the test on Rhipicephalus sanguineus and in the test on Ctenocephalides felis [1] were 90% and 95%, respectively. The values for the pest or weed control at 1 µg/cm2, 1 µg/cm2 in the test on Rhipicephalus sanguineus, in the test on Ctenocephalides felis [1] and in the test with Amblyomma americanum were 90%, 95% and 90%, respectively. Further, the pest or weed control at 100 ppm with Spodoptera litura, with Plutella xylostella and in the test on Laodelphax striatellus was ≥ 70% in each case. Also, the pest or weed control at 0.04 µg/cm2, 0.04 µg/cm2 with Ctenocephalides felis [1] stood at 95%. Also, the pest or weed control at 32 ng in test [2] worked out at 100%. The pest or weed control at 0.00016 mg in test [2] was 100%. Moreover, the pest or weed control at 0.0008 mg in test [2] came out at 100%. The inhibition in vivo at 2 mg/kg in the test on Ctenocephalides felis [3] (setting [4]) was determined as 100%; with Ctenocephalides felis [3] (setting [5]) it was 96%; with Ctenocephalides felis [3] (setting [6]), 67%; with Ctenocephalides felis [3] (setting [7]), 37%. Also, the inhibition in vivo at 10 mg/kg was 100% in the test with Ctenocephalides felis [3] (setting [4]); 100% with Ctenocephalides felis [3] (setting [5]); 98% with Ctenocephalides felis [3] (setting [6]); 90% in the test on Ctenocephalides felis [3] (setting [7]); 90% in the test on Ctenocephalides felis [3] (setting [8]).

For `CN(C(=O)c1ccc(F)cc1)c1cccc(C(=O)Nc2c(I)cc(C(F)(C(F)(F)F)C(F)(F)C(F)(F)F)cc2OC(F)F)c1F` (stereo not shown) [Compound 103], the pest or weed control at 0.2 µg/cm2, 0.2 µg/cm2 was 90% in the test on Rhipicephalus sanguineus, 95% in the test on Ctenocephalides felis [1] and 90% with Amblyomma americanum. Also, the pest or weed control at 1 µg/cm2, 1 µg/cm2 amounted to 90% in the test with Rhipicephalus sanguineus, 95% with Ctenocephalides felis [1] and 90% in the test on Amblyomma americanum. The pest or weed control at 100 ppm with Spodoptera litura, with Plutella xylostella and with Laodelphax striatellus was ≥ 70% throughout. The pest or weed control at 0.04 µg/cm2, 0.04 µg/cm2 with Ctenocephalides felis [1] came out at 95%. Further, the pest or weed control at 6.4 ng in test [2] (dose 0.0064 μg/animal injected) amounted to 100%. The pest or weed control at 32 ng in test [2] turned out to be 100%. In addition, the pest or weed control at 0.00016 mg in test [2] was determined as 100%. Moreover, the pest or weed control at 0.0008 mg in test [2] amounted to 100%. The inhibition in vivo at 10 mg/kg in the test on Ctenocephalides felis [3] (setting [4]) was 100%; in the test with Ctenocephalides felis [3] (setting [5]), 92%; in the test on Ctenocephalides felis [3] (setting [6]) it was 70%; in the test on Ctenocephalides felis [3] (setting [7]), 20%.

Regarding `CN(C(=O)c1ccc(F)nc1)c1cccc(C(=O)Nc2c(I)cc(C(F)(C(F)(F)F)C(F)(F)F)cc2C(F)(F)F)c1F` [Compound 115, 6-fluoro-N-(2-fluoro-3-((2-iodo-4-(perfluoropropan-2-yl)-6-(trifluoromethyl)phenyl)carbamoyl)phenyl)-N-methylnicotinamide], the pest or weed control at 0.04 µg/cm2, 0.04 µg/cm2 is 90% in the test with Rhipicephalus sanguineus (dose 0.04 μg/cm^2, 48 h) and 95% with Ctenocephalides felis [1]. The pest or weed control at 0.2 µg/cm2, 0.2 µg/cm2 amounted to 90% in the test with Rhipicephalus sanguineus, 95% with Ctenocephalides felis [1] and 90% in the test on Amblyomma americanum. Further, the figures for the pest or weed control at 1 µg/cm2, 1 µg/cm2 in the test on Rhipicephalus sanguineus, in the test on Ctenocephalides felis [1] and with Amblyomma americanum were 90%, 95% and 90%, respectively. Moreover, the pest or weed control at 100 ppm in the test with Spodoptera litura, with Plutella xylostella and with Laodelphax striatellus was ≥ 70% each time. The pest or weed control at 32 ng in test [2] stood at 100%. Besides, in test [2], the pest or weed control at 0.00016 mg was found to be 100%. The pest or weed control at 0.0008 mg in test [2] came to 100%. Moreover, the inhibition in vivo at 2 mg/kg in the test on Ctenocephalides felis [3] (setting [4]) stood at 100%; with Ctenocephalides felis [3] (setting [5]), 98%; in the test on Ctenocephalides felis [3] (setting [6]), 73%. The inhibition in vivo at 10 mg/kg in the test on Ctenocephalides felis [3] (setting [4]) came to 100%; in the test with Ctenocephalides felis [3] (setting [5]) it was 100%; in the test on Ctenocephalides felis [3] (setting [6]), 99%; in the test on Ctenocephalides felis [3] (setting [7]), 47%; in the test on Ctenocephalides felis [3] (setting [8]), 8%.

These data come from patent US11696913B2, “Prolonged ectoparasite-controlling agent for animal” (MITSUI CHEMICALS AGRO, INC., priority 2017, dated 2023).
